Read-outs that look alike come from different tables or passages of the source. One block for each compound: values may come before it.
Experiments:
[1] = target: T1, HisAviTEV-hSTING (139-342) human wild-type protein (Homo sapiens, UniProt Q86WV6, H232R); assay: Protein thermal shift assay, STING C-terminal binding domain protein; conditions: test compound final concentration 0.5 mM
T1 construct: made in house; host or cells: E. coli Rosetta 2 (DE3), co-expressed with BirA (1-321)

[2] = target: T2, HisAviTEV-hSTING (139-342) human REF-mutated protein (Homo sapiens, UniProt Q86WV6); assay: as above; conditions: test compound final concentration 0.5 mM
T2 construct: made in house; host or cells: E. coli Rosetta 2 (DE3), co-expressed with BirA (1-321)
T2 sequence (Q86WV6 with tags, fused parts or gaps, change not shown): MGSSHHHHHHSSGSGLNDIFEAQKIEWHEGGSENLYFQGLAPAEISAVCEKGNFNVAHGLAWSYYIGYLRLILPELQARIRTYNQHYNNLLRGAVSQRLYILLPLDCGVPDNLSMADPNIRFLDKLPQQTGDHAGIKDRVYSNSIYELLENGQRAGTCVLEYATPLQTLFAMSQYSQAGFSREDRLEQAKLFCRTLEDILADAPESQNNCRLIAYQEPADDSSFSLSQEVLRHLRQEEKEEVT

[3] = target: T3, HisAviTEV-hSTING (139-342) human AQ-mutated protein (Homo sapiens, UniProt Q86WV6, G230A/H232R/R293Q); assay: as above; conditions: test compound final concentration 0.5 mM
T3 construct: made in house; host or cells: E. coli Rosetta 2 (DE3), co-expressed with BirA (1-321)
T3 sequence (Q86WV6 with tags, fused parts or gaps G230A/H232R/R293Q): as the sequence (Q86WV6 with tags, fused parts or gaps, change not shown) above, with G131A, H133R, R194Q counted along it

[4] = target: T4, His-Avi-TEV-mSTING (138-341) mouse wild-type protein (Mus musculus, UniProt Q3TBT3); assay: as above; conditions: test compound final concentration 0.5 mM
T4 construct: made in house; host or cells: E. coli Rosetta 2 (DE3), co-expressed with BirA (1-321)
T4 sequence (Q3TBT3 with tags, fused parts or gaps limits assumed): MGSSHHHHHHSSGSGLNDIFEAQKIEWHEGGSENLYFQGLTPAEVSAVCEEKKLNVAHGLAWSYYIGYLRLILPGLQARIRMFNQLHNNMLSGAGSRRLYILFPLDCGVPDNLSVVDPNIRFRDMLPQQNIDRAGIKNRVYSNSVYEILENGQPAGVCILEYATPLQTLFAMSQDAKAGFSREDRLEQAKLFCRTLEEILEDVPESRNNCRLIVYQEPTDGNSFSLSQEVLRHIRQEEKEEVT
Method: Each of these expression strains was added to a TB medium containing 100 μg/mL ampicillin, 50 μg/mL streptomycin, and 30 μg/mL kanamycin, cultured at 37° C., then exposed to 100 μM IPTG for inducible expression, and further cultured at 16° C.
The culture solution was centrifuged, and the resulting bacterial cells were suspended in 50 mM HEPES pH 8.0, 500 mM NaCl, 20 mM imidazole, 1 mM DTT, 5% (w/v) glycerol, Complete EDTA free, and then subjected to freeze-thawing. After addition of Lysozyme and DNase I, proteins were extracted by ultrasonic disintegration, and centrifugation was performed and the resulting supernatant was collected. The supernatant obtained was purified by using an AKTA express chromatography system (GE Healthcare, IL, US) with a HisTrap FF column (GE Healthcare), and eluted with buffer (20 mM HEPES pH 7.5, 120 mM NaCl, 20% Glycerol, 0.8 mM DTT) through a Superdex 200 16/60 column (GE Healthcare). […] The protein concentrations were measured by using a NanoDrop2000 (Thermo Fisher Scientific, MA, US), and the proteins were cryopreserved at −80° C. until use.
The binding ability of each compound to the STING C-terminal binding domain proteins was evaluated by protein thermal shift assay, which uses the elevation of thermal denaturation temperature of protein as an index.
Specifically, 3 μL of a test compound (final concentration: 0.5 mM), 3 μL of SYPRO Orange Protein Gel Stain (Thermo Fisher Scientific) (final concentration: 20-fold), and 6 μL of a STING protein were mixed with use of assay buffer (20 mM Tris-HCl pH 7.5, 120 mM NaCl) in a 384-well real-time PCR plate, and mixed together with a plate shaker. With a real-time PCR system (Thermo Fisher Scientific), the temperature was increased from 25° C. to 95° C. at a rate of 0.03° C./sec, and the thermal denaturation temperature of the protein was measured by using fluorescence emitted from SYPRO Orange as an index. From the measurement acquired, Tm (the midpoint of the unfolding transition) (° C.) was determined as a temperature at which the increase rate of fluorescence intensity was maximized by using the analysis software Protein Thermal Shift software (Thermo Fisher Scientific). The Tm value for a well with no compound was subtracted from the Tm value for each test compound to calculate the Tm shift caused by the compound as ΔTm (° C.).

Human STING = Human STING (Homo sapiens, UniProt Q86WV6, G230A/H232R/R293Q/R71H); assay: Reporter gene assay, human STING agonist activity, THP1-Dual cells (HAQ-mutated), IRF pathway; conditions: 24 hours, 100% = maximum count with ML-RR-CDA·2Na+
Chain of Human STING (Q86WV6 whole entry R71H/G230A/H232R/R293Q): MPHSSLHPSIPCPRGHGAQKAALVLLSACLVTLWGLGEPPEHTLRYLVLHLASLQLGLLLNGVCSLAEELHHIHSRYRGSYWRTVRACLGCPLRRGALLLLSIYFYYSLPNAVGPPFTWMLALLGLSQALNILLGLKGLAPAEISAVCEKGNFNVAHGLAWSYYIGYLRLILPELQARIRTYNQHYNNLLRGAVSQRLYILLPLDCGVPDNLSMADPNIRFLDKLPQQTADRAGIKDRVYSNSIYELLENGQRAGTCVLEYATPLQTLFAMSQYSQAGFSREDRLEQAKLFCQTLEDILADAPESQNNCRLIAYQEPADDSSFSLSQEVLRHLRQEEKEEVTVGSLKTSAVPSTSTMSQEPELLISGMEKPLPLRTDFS

[5] = THP1-Dual cells IRF EC50, THP1-Dual cells (HAQ-mutated)

T1 sequence (Q86WV6 with tags, fused parts or gaps H232R): as the sequence (Q86WV6 with tags, fused parts or gaps, change not shown) above, with H133R counted along it

ΔTm at 500 µM [1]: 11.2 °C
ΔTm at 500 µM [2]: 5.2 °C
ΔTm at 500 µM [3]: 13.6 °C
ΔTm at 500 µM [4]: 15.3 °C
EC50 (Human STING; [5]): 980 nM
SMILES: NCCNc1nc(N)c2ncn([C@@H]3O[C@@H]4COP(=O)(S)O[C@H]5[C@@H](F)[C@H](n6cc7c8c(ncnc86)NCCC7)O[C@@H]5COP(=O)(S)O[C@@H]3[C@@H]4O)c2n1 (single isomer, unassigned) [37a]

ΔTm at 500 µM [1]: 6.5 °C
ΔTm at 500 µM [2]: 2.8 °C
ΔTm at 500 µM [3]: 9 °C
ΔTm at 500 µM [4]: 11.2 °C
EC50 (Human STING; [5]): 4200 nM
SMILES: NCCNc1nc(N)c2ncn([C@@H]3O[C@@H]4COP(=O)(S)O[C@H]5[C@@H](O)[C@H](n6cc7c8c(ncnc86)NCCC7)O[C@@H]5COP(=O)(S)O[C@@H]3[C@@H]4F)c2n1 (single isomer, unassigned) [42a]

ΔTm at 500 µM [1]: 14.7 °C
ΔTm at 500 µM [2]: 8.8 °C
ΔTm at 500 µM [3]: 18.9 °C
ΔTm at 500 µM [4]: 20.3 °C
EC50 (Human STING; [5]): 200 nM
SMILES: O=c1c2ncn([C@@H]3O[C@@H]4COP(=O)(S)O[C@H]5[C@@H](F)[C@H](n6cc7c8c(ncnc86)NCCC7)O[C@@H]5COP(=O)(S)O[C@@H]3[C@@H]4O)c2ncn1CCO (single isomer, unassigned) [34a]

ΔTm at 500 µM [1]: 8 °C
ΔTm at 500 µM [2]: 3.9 °C
ΔTm at 500 µM [3]: 9.7 °C
ΔTm at 500 µM [4]: 11.5 °C
EC50 (Human STING; [5]): 3500 nM
SMILES: O=C(CO)NCCn1cnc2c(ncn2[C@@H]2O[C@@H]3COP(=O)(S)O[C@H]4[C@@H](O)[C@H](n5cc6c7c(ncnc75)NCCC6)O[C@@H]4COP(=O)(S)O[C@@H]2[C@@H]3O)c1=O (single isomer, unassigned) [7a]

ΔTm at 500 µM [1]: 7.5 °C
ΔTm at 500 µM [2]: 3.7 °C
ΔTm at 500 µM [3]: 9.7 °C
ΔTm at 500 µM [4]: 12.4 °C
SMILES: Nc1ncnc2c1ncn2[C@@H]1O[C@@H]2COP(=O)(S)O[C@H]3[C@@H](O)[C@H](n4cc5c6c(ncnc64)OCCC5)O[C@@H]3COP(=O)(S)O[C@@H]1[C@@H]2O (single isomer, unassigned) [20a]

ΔTm at 500 µM [1]: 8 °C
ΔTm at 500 µM [2]: 3 °C
ΔTm at 500 µM [3]: 9.6 °C
ΔTm at 500 µM [4]: 11.9 °C
SMILES: Nc1nc(CO)nc2c1ncn2[C@@H]1O[C@@H]2COP(=O)(S)O[C@H]3[C@@H](O)[C@H](n4cc5c6c(ncnc64)NCCC5)O[C@@H]3COP(=O)(S)O[C@@H]1[C@@H]2O (single isomer, unassigned) [12a]

EC50 (Human STING; [5]): 2400 nM
SMILES: NCCn1cnc2c(ncn2[C@@H]2O[C@@H]3COP(=O)(S)O[C@H]4[C@@H](O)[C@H](n5cc6c7c(ncnc75)NCCC6)O[C@@H]4COP(=O)(S)O[C@@H]2[C@@H]3O)c1=O (single isomer, unassigned) [5a]

EC50 (Human STING; [5]): 4300 nM
SMILES: C[C@H]1CCc2cn([C@@H]3O[C@@H]4COP(=O)(S)O[C@@H]5[C@H](O)[C@@H](COP(=O)(S)O[C@H]4[C@H]3O)O[C@H]5n3cnc4c(N)ncnc43)c3ncnc(c23)O1 (single isomer, unassigned) [22b]

EC50 (Human STING; [5]): 5700 nM
SMILES: Nc1nc(NCCO)nc2c1ncn2[C@@H]1O[C@@H]2COP(=O)(S)O[C@H]3[C@@H](O)[C@H](n4cc5c6c(ncnc64)NCCC5)O[C@@H]3COP(=O)(S)O[C@@H]1[C@@H]2O (single isomer, unassigned) [9a]

EC50 (Human STING; read-out: THP1-Dual cells IRF EC50, THP1-Dual cells (HAQ-mutated)): 870 nM
SMILES: Nc1ncnc2c1ncn2[C@@H]1O[C@@H]2COP(=O)(S)O[C@@H]3[C@@H](COP(=O)(S)O[C@@H]1[C@@H]2O)C[C@@H](n1cc2c4c(ncnc41)NCCC2)[C@@H]3O (single isomer, unassigned) [46b]

EC50 (Human STING; [5]): 6300 nM
SMILES: CC(C)(N)CNc1nc(N)c2ncn([C@@H]3O[C@@H]4COP(=O)(S)O[C@H]5[C@@H](O)[C@H](n6cc7c8c(ncnc86)NCCC7)O[C@@H]5COP(=O)(S)O[C@@H]3[C@@H]4O)c2n1 (single isomer, unassigned) [10a]

EC50 (Human STING; [5]): 1200 nM
SMILES: O=c1c2ncn([C@@H]3O[C@@H]4COP(=O)(S)O[C@H]5C[C@H](n6cc7c8c(ncnc86)NCCC7)O[C@@H]5COP(=O)(S)O[C@@H]3[C@@H]4O)c2ncn1CCO (single isomer, unassigned) [32a]

ΔTm Hu-WT [1]: 12.3 °C
EC50 (Human STING; [5]): 200 nM
SMILES: O=C(CO)NCCn1cnc2c(ncn2[C@@H]2O[C@@H]3COP(=O)(S)O[C@H]4[C@@H](F)[C@H](n5cc6c7c(ncnc75)SCCC6)O[C@@H]4COP(=O)(S)O[C@@H]2[C@@H]3O)c1=O (single isomer, unassigned) [50b]

EC50 (Human STING; [5]): 580 nM
SMILES: Nc1ncnc2c1ncn2[C@@H]1O[C@@H]2COP(=O)(S)O[C@H]3[C@@H](O)[C@H](n4cc5c6c(ncnc64)NCCC5)O[C@@H]3COP(=O)(S)O[C@@H]1[C@@H]2O (stereo partly drawn) [47a, Disodium (2S,5R,7R,8R,12aR,14R,15R,15aS,16R)-7-(6-amino-9H-purin-9-yl)-15,16-dihydroxy-2-oxo-10-sulfanylidene-14-(6,7,8,9-tetrahydro-2H-2,3,5,6-tetraazabenzo[cd]azulen-2-yl)octahydro-2H,10H,12H-5,8-methano-2λ^5,10λ^5-furo[3,2-1][1,3,6,9,11,2,10]pentaoxadiphosphacyclotetradecine-2,10-bis(thiolate)]

EC50 (Human STING; [5]): 3400 nM
SMILES: NCCn1cnc2c(ncn2[C@@H]2O[C@@H]3COP(=O)(S)O[C@H]4[C@@H](O)[C@H](n5cc6c7c(ncnc75)NCCC6)O[C@@H]4COP(=O)(S)O[C@@H]2[C@@H]3F)c1=O (single isomer, unassigned) [40a]

EC50 (Human STING; [5]): 450 nM
SMILES: O=c1c2ncn([C@@H]3O[C@@H]4COP(=O)(S)O[C@H]5[C@@H](O)[C@H](n6cc7c8c(ncnc86)NCCC7)O[C@@H]5COP(=O)(S)O[C@@H]3C4)c2ncn1CCO (single isomer, unassigned) [38a]

EC50 (Human STING; [5]): 55 nM
SMILES: Nc1ncnc2c1ncn2[C@@H]1O[C@@H]2COP(=O)(S)O[C@H]3[C@@H](O)[C@H](n4cc5c6c(ncnc64)SCCC5)O[C@@H]3COP(=O)(S)O[C@@H]1[C@@H]2O (single isomer, unassigned) [23b]

EC50 (Human STING; [5]): 1600 nM
SMILES: O=c1c2ncn([C@@H]3O[C@@H]4COP(=O)(S)O[C@H]5[C@@H](O)[C@H](n6cc7c8c(ncnc86)NCCC7)O[C@@H]5COP(=O)(S)O[C@@H]3C4)c2ncn1CCO (single isomer, unassigned) [38b]

EC50 (Human STING; [5]): 700 nM
SMILES: Nc1ncnc2c1ncn2[C@@H]1O[C@@H]2COP(=O)(S)O[C@H]3[C@@H](O)[C@H](n4cc5c6c(ncnc64)OCCC5)O[C@@H]3COP(=O)(S)O[C@@H]1[C@@H]2O (single isomer, unassigned) [21b]

EC50 (Human STING; [5]): 3200 nM
SMILES: NCCn1cnc2c(ncn2[C@@H]2O[C@@H]3COP(=O)(S)O[C@H]4[C@@H](O)[C@H](n5cc6c7c(ncnc75)NCCC6)O[C@@H]4COP(=O)(S)O[C@@H]2[C@@H]3F)c1=O (single isomer, unassigned) [40b]

EC50 (Human STING; [5]): 39 nM
SMILES: O=c1c2ncn([C@@H]3O[C@@H]4COP(=O)(S)O[C@H]5[C@@H](F)[C@H](n6cc7c8c(ncnc86)SCCC7)O[C@@H]5COP(=O)(S)O[C@@H]3[C@@H]4O)c2ncn1CCO (single isomer, unassigned) [48b]

EC50 (Human STING; [5]): 300 nM
SMILES: Nc1ncnc2c1ncn2[C@@H]1O[C@@H]2COP(=O)(S)O[C@H]3[C@@H](O)[C@H](n4cc5c6c(ncnc64)NCCC5)O[C@@H]3COP(=O)(S)O[C@@H]1[C@@H]2O (single isomer, unassigned) [1b]

EC50 (Human STING; [5]): 320 nM
SMILES: NCCNc1nc(N)c2ncn([C@@H]3O[C@@H]4COP(=O)(S)O[C@H]5[C@@H](F)[C@H](n6cc7c8c(ncnc86)SCCC7)O[C@@H]5COP(=O)(S)O[C@@H]3[C@@H]4F)c2n1 (single isomer, unassigned) [51a]

EC50 (Human STING; [5]): 1800 nM
SMILES: Nc1nc(CO)nc2c1ncn2[C@@H]1O[C@@H]2COP(=O)(S)O[C@H]3[C@@H](O)[C@H](n4cc5c6c(ncnc64)NCCC5)O[C@@H]3COP(=O)(S)O[C@@H]1[C@@H]2O (single isomer, unassigned) [12b]

Reference: patent US12370263B2, “Cyclic dinucleotide derivative based antibody-drug conjugates” (DAIICHI SANKYO COMPANY, LIMITED, priority 2018, dated 2025)
